Measurements as given in US20220017468A1, “ISOQUINOLINE COMPOUNDS AND THEIR USE IN TREATING AhR IMBALANCE” (Dermavant Sciences GmbH, priority 2020, published 2022).
Read-outs that look alike come from different tables or passages of the source.

What was measured:
[1] = test system: dinitrofluorobenzene (DNFB)-challenged mouse; experiment: DNFB mouse model; assay type: in vivo; settings: 0.3% in ethanolic formulation, twice daily
Text: DNFB is a small chemical hapten that induces a delayed-type hypersensitivity reaction with some similarity to human atopic dermatitis. […] This may indicate reduced exposure to the compound in the second study, although additional data would be required to understand whether this discrepancy results from different dosing strategies (q.d. vs b.i.d.), limitations of cream formulation 1, or another reason.
Healthy female CD1 mice (Crl:CD1(ICR)) were shaved on the abdomen and the nape of the neck under a 3 to 5% isoflurane anesthesia.
After body weight measurement, animals were allocated to study groups, according to the treatment table below. The study was divided in two arms, separated by 1 week, in order to accommodate for the in life monitoring of scratching monitoring. Half of the animals from each group (6 mice) were allocated in arm 1 and arm 2 respectively.
For each topical treatment, 100 mg of cream or 100 μL of liquid formulation were applied on the mouse nape of the neck skin using a solvent pipette. When creams were used, they were spread with a finger and allowed to penetrate the skin by massage until complete absorption. […]
Mice were culled on Day 17 under a 3 to 5% isoflurane anesthesia, 4 hours after the last topical treatment, and 48 hours after the last DNFB or acetone/olive oil challenge. […] Epidermal (FIG. 6C1) and dermal thickness (FIG. 6C2) were measured.

[2] = plasma protein binding by Rapid Equilibrium Dialysis, minipig; assay type: in vitro ADME; settings: minipig, plasma
Text: The blood-to-plasma ratios were similar across species (1.22-1.36, Table 9).

[3] = test system: human peripheral blood CD4+ T-cells; experiment: T cell viability; assay type: cell-based; settings: 120 h, Th17 polarizing conditions, 5 days
Text: Points represent percent maximum expression of protein compared to Th17 from six combined donors; 3 biological replicates per treatment. Error bars represent standard error of mean. […] Data are mean±standard error from 3 to 9 experimental data points. […] Error bars represent mean ±standard error of 10-15 biological replicates.

[4] = metabolic stability in hepatocytes, rabbit; assay type: in vitro ADME
[5] = metabolic stability in liver microsomes, rabbit; assay type: in vitro ADME
[6] = metabolic stability in liver microsomes, mouse; assay type: in vitro ADME

CC(C)c1c(O)cc(-c2cc3ccccc3cn2)cc1O
reduction in dermal thickness [1]: 34%
reduction in epidermal thickness [1]: 20%
fraction unbound at 4 h, 2 μM ([2]; read-out: % Unbound Mean (% CV)): 0.0198
fraction unbound at 4 h, 2 μM ([2]; read-out: % Unbound Replicate): 0.0187
fraction unbound at 4 h, 2 μM ([2]; read-out: Mean % Bound (converted)): 0.02
IC50 [3]: 5.9 µM
half-life at 0.5 μM [4]: 21.3 min
CLint, hep ([4]; 0.5 μM): 7.80 mL/min/g liver
CLint scaled at 0.5 μM ([4]; read-out: Scaled CLint, hep): 240 mL/min/kg
CLint, mic ([5]; rabbit liver microsomes, 0.5 μM): 11.9 mL/min/g liver
CLint scaled at 0.5 μM ([5]; rabbit liver microsomes, 0.5 μM, read-out: Scaled CLint, mic): 367 mL/min/kg
half-life at 0.5 μM ([5]; rabbit, microsomes): 6.1 min
CLint, mic ([6]; mouse liver microsomes, 0.5 μM): 23.4 mL/min/g liver
CLint scaled at 0.5 μM ([6]; mouse liver microsomes, 0.5 μM, read-out: Scaled CLint, mic): 1190 mL/min/kg
half-life at 0.5 μM ([6]; mouse, microsomes): 2.84 min
